Test results taken from patent US20240082342A1, “PEPTIDE THERAPEUTICS FOR INCREASING LUNG CELL VIABILITY” (BOARD OF REGENTS, THE UNIVERSITY OF TEXAS SYSTEM, priority 2018, published 2024).
Entries after “also recorded” stand apart in the source; their conditions may differ.

Legend:
[1] = tested on: human COPD lung tissues; test: Human COPD lung tissues treated ex vivo for 72 h; format: cell-based; conditions: for active caspase-3 in AT2 cells isolated from treated tissue: COPD tissue ex vivo
Method: Lung tissues from control subjects and patients with COPD were treated with or without CSP7 for 72 h ex vivo or in vitro. Lung homogenates were analyzed for immunoblot and Real time PCR.
Treatment of human lung tissues with CSP7 ex vivo. For ex vivo studies, de-identified human COPD lung tissues and histologically “normal” lung (nL) tissues were obtained from transplant recipients and from the Gift of Life Donor Program (www.donors1.org) from Temple University, Philadelphia, PA, USA.
Ex vivo studies using human lung tissues without patient identity was approved by the Institutional (UTHSCT) Review Board (IRB) through exempt protocol #12-003. nL and COPD tissues (n=4-5) were treated with or without CSP7 for 72 h ex vivo as described previously (Marudamuthu et al, 2019). Total protein and RNA extracted from the lung tissues were analyzed by Western blotting and qPCR for MUC5AC protein and mRNA, respectively. In separate experiments, AT2 cells isolated from nL and COPD lungs were treated with CSP7 or CP and immunoblotted for changes in senescence or apoptosis, p53, PAI-1 and SP-C expression. Similarly, nL and COPD tissues were treated with or without CSP7 or CP for 72 h ex vivo and AT2 cells isolated from these tissues were analyzed for senescence or apoptosis, p53, PAI-1 and SP-C.

[2] = tested on: WT mice exposed to PTS; test: Passive tobacco smoke (PTS) exposed WT mice treated IP with CSP or CSP7 once a week; format: in vivo, mouse; conditions: for p53, PAI-1 expression and apoptosis in A2Cs/A2ECs: PTS (or IL-17A) exposure; for pulmonary influx of CD4- and CD8-positive T cells, macrophages and neutrophils: PTS exposed mice
Method: Four weeks after initiation of PTS exposure, the WT mice were administered an intraperitoneal injection of vehicle or CSP (18.75 mg/kg body wt) or control peptide (CP) once a week for the next 4 weeks. Exposure to PTS was continued for another 12 weeks. BAL fluid and lysates (CL) from A2ECs isolated from PTS exposed WT mice treated with vehicle, CSP or CP were immunoblotted for p53 and PAI-1 and activation of caspase-3. -β-actin was tested for similar loading. […] The process involves inhibition of p53-induced PAI-1 expression.
FIGS. 57A-57C show inhibition of PTS-induced IL-17A by CSP in WT mice. Four weeks after initiation of PTS exposure as in FIG. 56, the WT mice were administered an intraperitoneal (IP) injection of vehicle or CSP (18.75 mg/kg body wt) or control peptide (CP) once a week for the next 4 weeks. Exposure to PTS was continued for another 12 weeks. Lung sections (A), lung homogenates (B) and total RNA (C) were analyzed for IL-17A and IL-17R mRNA expression by qRT-PCR.
FIGS. 60A-60B show inhibition of PTS-induced p53^AC, p53^S15 and p53, PAI-1, apoptosis and senescence by CSP7 in WT mice. Four weeks after initiation of PTS exposure as in FIG. 56, the WT mice were IP injected with vehicle or CSP7 or CP once a week for the next 4 weeks. Exposure to PTS was continued for another 12 weeks. (A) Lung sections were subjected IHC analysis for p53 and PAI-1. (B) A2ECs isolated from the lungs of these mice were immunoblotted for above mentioned proteins.
Wild-type (WT) and p53- and PAI-1-deficient mice of C57BL/6 background were bred in the inventor's facilities or were purchased from Jackson Laboratories. These mice were exposed to passive TSE from 40 research cigarettes over a 2 hour period 5 days/week for 20 weeks (^˜90 mg/m3 total solid particulates) by using a mechanical smoking chamber (Teague Enterprises, Davis, CA). Control mice were exposed to ambient air. Four weeks after initiation of passive TSE exposure, the mice were administered an intraperitoneal injection of CSP7 or scrambled control peptide (CP) (18.75 mg/kg body wt) once a week for 4 weeks (Marudamuthu et al. Am J Pathol 185: 55-68, 2015); Tiwari et al., supra). Mice were killed, and their lungs were used for further analyses (Bhandary et al., supra).

[3] = tested on: A2Cs of PAI-1^−/− mice; test: Tobacco smoke or repeated bleomycin exposure of PAI-1-/- mice; format: in vivo, mouse; conditions: for IHC TRF1 or TRF2 antigen expression / telomerase enzyme activity (trapeze) / telomere length: PAI-1-/- mice; for IHC TRF1 or TRF2 antigen expression / telomerase enzyme activity (trapeze): TS; for telomere length: smoke or BLM; for p53, Acp53, S15p53, cleaved caspase-3, β-galactosidase, SIAH1/2, PNUTS, TRF1, TRF2, TERT (Western blot): 8X-BLM; for telomere length (qPCR): 20 weeks TS; for p53, Acp53, S15p53, cleaved caspase-3, β-galactosidase in AT2 cells (Western blot): CS 20 weeks
Method: To analyze the effect of cigarette smoke, mice were exposed to passive smoke from 40 research cigarettes over a 2-hour period once (2 h) or twice (4 h) daily for 5 days/week for 20 weeks (˜90 mg/m^3 total solid particulates) using a mechanical smoking chamber (Teague Enterprises, Davis, CA). Control mice were exposed to ambient air. At the 18th week, peptide treatment at a dosage of 30 μg/20 g body weight was initiated and continued on a daily basis for the next 14 days. At the end of the experiment, the mice were euthanized and used for the experiments.
To analyze the effect of BLM, mice were exposed to BLM (40 μg/20 g body weight) once per two week for 16 weeks. Control mice were exposed to normal saline. At 14th week the peptide treatment at a dosage of 30 μg/20 g body weight was initiated and continued on a daily basis for the next 14 days. At the end of the experiment, the mice were euthanized and used for the experiments.
To test the effect of chronic TS exposure induced lung injury, these mice were exposed to passive TS from 40 research cigarettes over a 4 h period 5 days/week for 20 weeks (˜90 mg/m3 total solid particulates) using a mechanical smoking chamber (Teague Enterprises, Davis, CA) as described earlier. (Bhandary et al, 2015). Control mice were kept in ambient air. After sixteen weeks of daily passive TS exposure, mice with TS exposure injury were treated with CSP7 at a dosage of 1.5 mg/kg body weight daily 5 days/week for the next four weeks. These mice were continued with daily exposure of 4 h of TS during CSP7 treatment. At the end of the experiment (after 20 weeks of TS exposure), the mice were euthanized, and lungs were utilized for further analyses. To expand the local delivery options of CSP7 to directly treat the damaged lung by air-jet milling for dry powder inhalation (DPI). Mice exposed to TSE were treated with CSP7 using a rotating brush generator for 15 min daily for 7 days. Fourteen days later, BLM mice were subjected to daily inhalation of micronized CSP7 (0.05 mg/kg/d) DP through air-jet-milling for seven consecutive days using a rotating brush exposure system. The rotating brush exposure system gave a consistent minimal chamber concentration of 0.1 mg/L. In order to match dosing of DP inhalation, animal exposure times were adjusted to approximately 15 minutes and an estimated dose of 0.05 mg/kg/d or 1.00 microgram/lung was administered.
To evaluate the effect of CSP7 against chronic BLM-induced PF, the mice were exposed to BLM (40 μg/20 g body weight) once every two weeks for 16 weeks as described elsewhere. (Tiwari et al, 2016). Control mice were exposed to normal saline. Fourteen weeks later the CSP7 at a dosage of 1.5 mg/kg body weight was administered by IP injection and continued daily basis for the next two weeks as described elsewhere. (Tiwari et al, 2016; Shetty et al, 2008b). At the end of the experiment, the mice were euthanized and lung tissues and isolated A2Cs from the extracted lung tissues were used for further analysis.

Substance	MUC5AC, HDAC6, SPDEF, Ac-Tubulin, FOXA2 and other MCM markers (Western blot) ([1]; COPD tissue, 10 μM, 72 h)	p53, PAI-1 expression and apoptosis in A2Cs/A2ECs [2]	pulmonary influx of CD4- and CD8-positive T cells, macrophages and neutrophils [2]	lung volume (micro-CT) ([2]; WT mice, 20 weeks PTS)	Cav1 expression in A2ECs ([2]; WT mice, PTS)	PTS-induced IL-17A (and IL-17R) in the lungs ([2]; WT mice, PTS)	acetylated p53, serine-15 phosphorylated p53, total p53 and Sirt1 in A2ECs ([2]; WT mice, PTS)	miR-34a expression in A2ECs ([2]; WT mice, PTS)	active caspase-3 in AT2 cells isolated from treated tissue [1]	MUC5AC, HDAC6, FOXA3, CAV1 and FOXA2 mRNA ([1]; COPD tissue, 10 μM, 72 h)	IHC TRF1 or TRF2 antigen expression [3]	telomerase enzyme activity (trapeze) [3]	telomere length [3]	p53, Acp53, S15p53, cleaved caspase-3, β-galactosidase, SIAH1/2, PNUTS, TRF1, TRF2, TERT (Western blot) ([3]; PAI-1-deficient mice)	telomere length (qPCR) ([3]; PAI-1-deficient mice)	p53, Acp53, S15p53, cleaved caspase-3, β-galactosidase in AT2 cells (Western blot) ([3]; PAI-1-deficient mice)	other results
DGIWKASFTTFTVTKYWFYR (listed as Homo sapiens) [CSP, 20 residue caveolin-1 scaffolding domain peptide]	reverse	mitigates A2EC apoptosis	inhibits pulmonary influx of CD4- and CD8-positive T cells, macrophages and neutrophils	significantly reduced; also recorded: reduced lung volumes	without affecting Cav1 expression; also recorded: without inhibiting PTS-induced Cav1	inhibits PTS-induced accumulation of IL-17A in the lungs; also recorded: significantly inhibited PTS-induced IL-17A and IL-17R levels	blocked ^p15Sp53; also recorded: inhibits acetylation; also recorded: restoration of Sirt1; also recorded: reduced p53^AC, p53^S15 and total p53 levels, and restored baseline Sirt1 expression	suppression of miR-34a expression; also recorded: significantly inhibited									lung inflammation, pulmonary PMN accumulation (MPO) ([2]; WT mice, 20 weeks PTS): significantly suppresses lung inflammation; Cav1 binding with PP2Ac in A2ECs ([2]; WT mice, PTS): inhibited the PTS-induced binding of Cav1 with PP2Ac
FTTFTVT (listed as Homo sapiens) [CSP7, heptapeptide fragment of the caveolin-1 scaffolding domain peptide CSP]	reverse; also recorded: reduced MUC5AC and other MCM markers	inhibited PTS or IL-17A exposure induced p53	inhibits pulmonary influx of CD4- and CD8-positive T cells, macrophages and neutrophils; also recorded: reversed	significantly reduced; also recorded: reduced lung volumes	without inhibiting PTS-induced Cav1	inhibits PTS-induced accumulation of IL-17A in the lungs	reduced p53^AC, p53^S15 and total p53 levels, and restored baseline Sirt1 expression	reduced miR-34a	reduced active caspase-3	parallel inhibition of MUC5AC, HDAC6, FOXA3 and CAV1 mRNA with an increase in FOXA2 mRNA	minimal change in TRF1 or TRF2 antigen expression	no significant change activity	no significant change in telomere length	little or no difference	minimal effect on telomere length	little or no difference	PP2A and CIP2A mRNA ([1]; COPD tissue): significantly reversed; baseline CAV1, p53 and PAI-1 ([1]; COPD tissue, 10 μM, 72 h): suppression of baseline CAV1, p53, and PAI-1; p53 and SP-C in AT2 cells isolated from treated tissue ([1]; COPD tissue, 72 h ex vivo): reduction in p53 while restoring baseline SP-C expression; effect in nL tissues ([1]; normal lung tissue ex vivo): minimal effect; expression of p53 in A2Cs ([3]; PAI-1-deficient mice, TS or BLM): minimal effect; PAI-1, p53^AC, p53^S15, cleaved Caspase-3 and beta-galactosidase in lung sections and A2ECs ([2]; WT mice, 20 weeks PTS): markedly reduced; p53 and PAI-1 in BAL fluids and lung homogenates ([2]; injected 4 weeks after initiation of TSE, 20 weeks): significantly suppressed the expression of p53 and PAI-1
WGIDKAFFTTSTVTYKWFRY [CP, scrambled control peptide with the same amino acid composition as CSP, reference compound]							still showed elevated p53^AC, p53^S15, total p53 and PAI-1		otherwise increased	failed to respond	minimal change in TRF1 or TRF2 antigen expression	no significant change activity	no significant change in telomere length	little or no difference	minimal effect on telomere length	little or no difference	
